The assay addresses GTPase KRas (G12D) and Son of Sevenless Homolog 1 (SOS) (Homo sapiens, UniProt P01116, G12D). Nature of the assay: AlphaScreen Assay. For orientation: In Alpha technology, singlet oxygen from a donor bead excites a nearby acceptor bead.

Molecules are shown by their SMILES. pIC50: −log10 of the molar value. Numbered stars: 1 amine (or outer) side, 2 acyl side, 3 side chain; on linkers, the order of the positions; unused ones are H or OH. Bridge positions count the residues as written; N and C are the ends. Square brackets hold non-standard residues; d marks the D form. Peptide text beside a SMILES is read from it. * marks the point of attachment. ξ: configuration not given here. hPhe(3,5-F2-4-CF3) = N[C@@H](CCc1cc(F)c(C(F)(F)F)c(F)c1)C(=O)O; hPhe(3-Cl-4-CF3) = N[C@@H](CCc1ccc(C(F)(F)F)c(Cl)c1)C(=O)O; hPhe(3-F,4-CF3) = N[C@@H](CCc1ccc(C(F)(F)F)c(F)c1)C(=O)O; NMeGly(COCH2cHex) = CN[C@H](C(=O)O)C(=O)CC1CCCCC1; X54 = COc1cc(CC[C@H](N[*:1])C(=O)[*:2])cc(Cl)c1Cl; X63 = O=C([C@H](CCc1ccc(C(F)F)c(F)c1)N[*:1])[*:2]; X96 = O=C([C@H](CCc1ccc(C(F)(F)F)nc1)N[*:1])[*:2]; Piperazinyl(4-(3-oxetanyl)) = C1OCC1N1CCN(*)CC1; X55 = Cn1ccc2ccc(CC[C@H](N[*:1])C(=O)[*:2])cc21; X44 = O=C([C@H](CCc1ccc2cccnc2c1)N[*:1])[*:2]; X85 = O=C([C@H](CCc1ccc2ncccc2c1)N[*:1])[*:2]; NMeGly(cPent) = CN[C@H](C(=O)O)C1CCCC1; NMeCha = CN[C@@H](CC1CCCCC1)C(=O)O; cisHyp = O=C(O)[C@@H]1C[C@H](O)CN1; ξPro(4,4-F2) = O=C(O)C1CC(F)(F)CN1; Hyp = O=C(O)[C@@H]1C[C@@H](O)CN1; NMeChg = CN[C@H](C(=O)O)C1CCCCC1; NMeI = CC[C@H](C)[C@H](NC)C(=O)O; NMeD = CN[C@@H](CC(=O)O)C(=O)O; NMeL = CN[C@@H](CC(C)C)C(=O)O; d(β3hA) = C[C@@H](N)CC(=O)O; NMeA = CN[C@@H](C)C(=O)O; Piperidide = C1CCN(*)CC1; Pyrrolidide = C1CCN(*)C1; Ac5c = NC1(C(=O)O)CCCC1; Aze = O=C(O)[C@@H]1CCN1; Ac4c = NC1(C(=O)O)CCC1; ξP = O=C(O)C1CCCN1; Sar = CNCC(=O)O

10 compounds from BindingDB's records for patent US20240148821 (Chugai Seiyaku Kabushiki Kaisha, 2024) can be followed below.

GTPase KRas (G12D) and Son of Sevenless Homolog 1 (SOS), sequence (P01116 whole entry G12D): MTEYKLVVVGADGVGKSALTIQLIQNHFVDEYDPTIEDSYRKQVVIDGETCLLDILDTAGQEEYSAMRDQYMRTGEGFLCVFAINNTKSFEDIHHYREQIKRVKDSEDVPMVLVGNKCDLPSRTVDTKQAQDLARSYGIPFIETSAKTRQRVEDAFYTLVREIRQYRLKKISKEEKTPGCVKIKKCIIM
GTPase KRas (G12D) and Son of Sevenless Homolog 1 (SOS), sequence (Q07889 whole entry, further chain): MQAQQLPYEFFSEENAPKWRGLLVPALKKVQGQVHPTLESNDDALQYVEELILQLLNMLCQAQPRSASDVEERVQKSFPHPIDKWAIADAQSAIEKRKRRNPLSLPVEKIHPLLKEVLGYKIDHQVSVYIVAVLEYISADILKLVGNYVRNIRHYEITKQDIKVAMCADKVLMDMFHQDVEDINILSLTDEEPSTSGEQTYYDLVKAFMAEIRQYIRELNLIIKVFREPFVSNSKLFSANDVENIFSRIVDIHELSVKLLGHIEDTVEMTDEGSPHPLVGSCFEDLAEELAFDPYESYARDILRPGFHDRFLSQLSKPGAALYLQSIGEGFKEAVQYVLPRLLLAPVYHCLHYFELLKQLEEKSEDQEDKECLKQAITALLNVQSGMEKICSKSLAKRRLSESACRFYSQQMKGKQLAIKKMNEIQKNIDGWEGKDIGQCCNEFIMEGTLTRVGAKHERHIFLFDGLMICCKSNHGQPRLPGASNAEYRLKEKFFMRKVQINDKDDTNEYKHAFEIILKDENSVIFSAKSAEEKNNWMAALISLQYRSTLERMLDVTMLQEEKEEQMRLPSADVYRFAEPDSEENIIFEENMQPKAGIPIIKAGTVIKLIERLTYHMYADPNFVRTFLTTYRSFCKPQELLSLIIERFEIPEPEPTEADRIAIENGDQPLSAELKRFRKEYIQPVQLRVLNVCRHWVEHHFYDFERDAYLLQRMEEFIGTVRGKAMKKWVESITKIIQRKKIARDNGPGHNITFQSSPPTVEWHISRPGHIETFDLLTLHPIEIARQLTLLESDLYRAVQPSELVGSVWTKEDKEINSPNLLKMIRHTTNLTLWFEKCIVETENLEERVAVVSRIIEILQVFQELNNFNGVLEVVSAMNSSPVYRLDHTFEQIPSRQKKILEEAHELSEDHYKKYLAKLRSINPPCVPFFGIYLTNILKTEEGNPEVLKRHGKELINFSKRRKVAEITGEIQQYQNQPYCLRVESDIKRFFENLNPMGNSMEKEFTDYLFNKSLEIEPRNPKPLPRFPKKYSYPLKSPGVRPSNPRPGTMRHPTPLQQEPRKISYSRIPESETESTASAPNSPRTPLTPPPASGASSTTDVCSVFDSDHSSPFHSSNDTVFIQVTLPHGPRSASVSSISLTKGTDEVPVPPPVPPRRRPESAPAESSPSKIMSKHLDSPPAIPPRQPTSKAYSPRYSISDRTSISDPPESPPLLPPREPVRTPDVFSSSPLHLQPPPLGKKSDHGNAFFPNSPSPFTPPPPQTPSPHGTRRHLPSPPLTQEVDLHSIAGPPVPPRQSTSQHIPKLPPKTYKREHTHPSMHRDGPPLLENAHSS

Turning to `CC[C@H](C)[C@@H]1NC(=O)[C@H](CC(C)C)N(C)C(=O)C[C@@H](C(=O)N2CCCCC2)N(C)C(=O)[C@H](CC(C)C)N(C)C(=O)C2(CCCC2)NC(=O)[C@@H]2C[C@H](O)CN2C(=O)[C@H](CCc2ccc(C(F)(F)F)c(F)c2)NC(=O)CN(C)C(=O)[C@H](CC2CCCCC2)N(C)C(=O)CN(C)C(=O)CN(C)C1=O` [US20240148821, Compound 544] ([NMeL]I[Sar][Sar][NMeCha][Sar][hPhe(3-F,4-CF3)][cisHyp][Ac5c][NMeL][NMeD]-Piperidide; lactam N-11), the pIC50 (commonly −log10 of the IC50, conventionally taken in molar units) was 8.66.

In the case of `CC[C@H](C)[C@@H]1NC(=O)[C@H](CC(C)C)N(C)C(=O)C[C@@H](C(=O)N2CCN(C3COC3)CC2)NC(=O)[C@H]([C@@H](C)CC)N(C)C(=O)C2(CCCC2)NC(=O)C2CCCN2C(=O)[C@H](CCc2ccc(C(F)(F)F)c(Cl)c2)NC(=O)CN(C)C(=O)[C@H](C(=O)CC2CCCCC2)N(C)C(=O)CN(C)C(=O)CN(C)C1=O` (stereo partly drawn) [US20240148821, Compound 1191] ([NMeL]I[Sar][Sar][NMeGly(COCH2cHex)][Sar][hPhe(3-Cl-4-CF3)][ξP][Ac5c][NMeI]D-{Piperazinyl(4-(3-oxetanyl))}; lactam N-11), the pIC50 was 8.17.

`CC[C@H](C)[C@@H]1NC(=O)[C@H](CC(C)C)N(C)C(=O)C[C@@H](C(=O)N2CCCC2)N(C)C(=O)[C@H](C2CCCCC2)N(C)C(=O)C2(CCC2)NC(=O)C2CC(F)(F)CN2C(=O)[C@H](CCc2cc(F)c(C(F)(F)F)c(F)c2)NC(=O)CN(C)C(=O)[C@H](C(=O)CC2CCCCC2)N(C)C(=O)CN(C)C(=O)CN(C)C1=O` (stereo not given in full) [US20240148821, Compound 1192] ([NMeL]I[Sar][Sar][NMeGly(COCH2cHex)][Sar][hPhe(3,5-F2-4-CF3)][ξPro(4,4-F2)][Ac4c][NMeChg][NMeD]-Pyrrolidide; lactam N-11) showed a negative logarithm of the IC50 (pIC50) of 9.41.

Turning to `CC[C@H](C)[C@@H]1NC(=O)[C@H](CC(C)C)N(C)C(=O)C[C@@H](C)NC(=O)[C@H](CC(C)C)N(C)C(=O)C2(CCCC2)NC(=O)[C@@H]2C[C@@H](O)CN2C(=O)[C@H](CCc2ccc(C(F)(F)F)c(F)c2)NC(=O)CN(C)C(=O)[C@H](CC2CCCCC2)N(C)C(=O)CN(C)C(=O)CN(C)C1=O` [US20240148821, Compound 1483] (cyclo([Ac5c][NMeL][d(β3hA)][NMeL]I[Sar][Sar][NMeCha][Sar][hPhe(3-F,4-CF3)][Hyp])), the pIC50 is 7.47.

In turn, `CC[C@H](C)[C@@H]1NC(=O)[C@H](CC(C)C)N(C)C(=O)C[C@@H](C(=O)N2CCCCC2)N(C)C(=O)[C@H](C2CCCC2)N(C)C(=O)C2(CCCC2)NC(=O)[C@@H]2CCCN2C(=O)[C@H](CCc2ccc3ccn(C)c3c2)NC(=O)CN(C)C(=O)[C@H](CC2CCCCC2)N(C)C(=O)[C@@H]2CCN2C(=O)[C@H](C)N(C)C1=O` [US20240148821, Compound 2065] ([NMeL]I[NMeA][Aze][NMeCha][Sar][X55]P[Ac5c][NMeGly(cPent)][NMeD]-Piperidide; lactam N-11) had a negative logarithm of the IC50 (pIC50) of 7.80.

Turning to `CC[C@H](C)[C@@H]1NC(=O)[C@H](CC(C)C)N(C)C(=O)C[C@@H](C(=O)N2CCCCC2)N(C)C(=O)[C@H](C2CCCC2)N(C)C(=O)C2(CCCC2)NC(=O)[C@@H]2CCCN2C(=O)[C@H](CCc2ccc3ncccc3c2)NC(=O)CN(C)C(=O)[C@H](CC2CCCCC2)N(C)C(=O)[C@@H]2CCN2C(=O)[C@H](C)N(C)C1=O` [US20240148821, Compound 2070] ([NMeL]I[NMeA][Aze][NMeCha][Sar][X85]P[Ac5c][NMeGly(cPent)][NMeD]-Piperidide; lactam N-11), the pIC50 was 7.74.

Compound `CC[C@H](C)[C@@H]1NC(=O)[C@H](CC(C)C)N(C)C(=O)C[C@@H](C(=O)N2CCCCC2)N(C)C(=O)[C@H](C2CCCC2)N(C)C(=O)C2(CCCC2)NC(=O)[C@@H]2CCCN2C(=O)[C@H](CCc2ccc3cccnc3c2)NC(=O)CN(C)C(=O)[C@H](CC2CCCCC2)N(C)C(=O)[C@@H]2CCN2C(=O)[C@H](C)N(C)C1=O` [US20240148821, Compound 2077] ([NMeL]I[NMeA][Aze][NMeCha][Sar][X44]P[Ac5c][NMeGly(cPent)][NMeD]-Piperidide; lactam N-11) had a pIC50 of 7.33.

`CC[C@H](C)[C@@H]1NC(=O)[C@H](CC(C)C)N(C)C(=O)C[C@@H](C(=O)N2CCCCC2)N(C)C(=O)[C@H](C2CCCC2)N(C)C(=O)C2(CCCC2)NC(=O)[C@@H]2CCCN2C(=O)[C@H](CCc2ccc(C(F)(F)F)nc2)NC(=O)CN(C)C(=O)[C@H](CC2CCCCC2)N(C)C(=O)[C@@H]2CCN2C(=O)[C@H](C)N(C)C1=O` [US20240148821, Compound 2078] ([NMeL]I[NMeA][Aze][NMeCha][Sar][X96]P[Ac5c][NMeGly(cPent)][NMeD]-Piperidide; lactam N-11) had a negative-log IC50 (pIC50) of 7.96.

`CC[C@H](C)[C@@H]1NC(=O)[C@H](C)N(C)C(=O)C[C@@H](C(=O)N2CCCCC2)N(C)C(=O)[C@H](C2CCCCC2)N(C)C(=O)C2(CCCC2)NC(=O)C2CCCN2C(=O)[C@H](CCc2cc(Cl)c(Cl)c(OC)c2)NC(=O)CN(C)C(=O)[C@H](C(=O)CC2CCCCC2)N(C)C(=O)CN(C)C(=O)CN(C)C1=O` (stereo not given in full) [US20240148821, Compound 2081] ([NMeA]I[Sar][Sar][NMeGly(COCH2cHex)][Sar][X54][ξP][Ac5c][NMeChg][NMeD]-Piperidide; lactam N-11) gave a negative logarithm of the IC50 (pIC50) of 8.70.

In the case of `CC[C@H](C)[C@@H]1NC(=O)[C@H](CC(C)C)N(C)C(=O)C[C@@H](C(=O)N2CCCCC2)N(C)C(=O)[C@H](C2CCCC2)N(C)C(=O)C2(CCCC2)NC(=O)[C@@H]2CCCN2C(=O)[C@H](CCc2ccc(C(F)F)c(F)c2)NC(=O)CN(C)C(=O)[C@H](CC2CCCCC2)N(C)C(=O)[C@@H]2CCN2C(=O)[C@H](C)N(C)C1=O` [US20240148821, Compound 2085] ([NMeL]I[NMeA][Aze][NMeCha][Sar][X63]P[Ac5c][NMeGly(cPent)][NMeD]-Piperidide; lactam N-11), the pIC50 is 8.54.
